Source: publication PMC7926793, “Synthesis and Biological Evaluation of 1-(Diarylmethyl)-1H-1,2,4-triazoles and 1-(Diarylmethyl)-1H-imidazoles as a Novel Class of Anti-Mitotic Agent for Activity in Breast Cancer” (Pharmaceuticals, 2021)

Experiments:
MCF-7 cells [1] = assay: cell cycle analysis, PI staining, flow cytometry; type: cell-based, human; settings: 1 μM
Procedure: The cells were collected by trypsinisation and centrifuged at 800× g for 15 min. Cells were washed twice with ice-cold phosphate-buffered saline (PBS) and fixed in ice-cold 70% ethanol overnight at −20 °C.

[2] = system: MCF-7 human breast cancer cells; assay: alamarBlue cell viability assay; type: cell-based; settings: Homo sapiens, MCF7, 72 h, read-out: cell viability (viable cells)
Procedure: The human breast carcinoma cell line MCF-7 was purchased from the European Collection of Animal Cell Cultures (ECACC) and cultured in Eagles minimum essential medium with 10% foetal bovine serum, 2 mM L-glutamine, and 100 μg/mL penicillin/streptomycin. The medium was supplemented with 1% non-essential amino acids. The human breast carcinoma cell line MDA-MB-231 was purchased from the ECACC. MDA-MB-231 cells were maintained in Dulbecco’s modified Eagle’s medium (DMEM) supplemented with 10% (v/v) foetal bovine serum, 2 mM L-glutamine, and 100 μg/mL penicillin/streptomycin (complete medium). HL-60 cells were derived from a patient with acute myeloid leukaemia and were obtained from the ECACC (Salisbury, UK). Cells were cultured in RPMI-1640 Glutamax medium supplemented with 10% FCS media and 100 μg/mL penicillin/streptomycin. MCF-10A cells were obtained as a kind gift from Dr Susan McDonnell, School of Chemical and Bioprocess Engineering, University College Dublin and were cultured in Dulbecco’s Modified Eagle Medium: Nutrient Mixture F-12 (DMEM/F12; Gibco) supplemented with 5% horse serum (Invitrogen), 20 ng mL^−1 epidermal growth factor (Merck Millipore), 0.5 μg mL^−1 hydrocortisone (Sigma,-Aldrich, Arklow, Co. Wicklow, Ireland), 100 ng mL^−1 cholera toxin (Sigma, Aldrich, Arklow, Co. Wicklow, Ireland), 10 μg mL^−1 insulin (Sigma, Aldrich, Arklow, Co. Wicklow, Ireland), and penicillin/streptomycin 5000 U mL^−1 (1%)(Gibco, Biosciences, 3 Charlemont Terrace, Crofton Road, Dun Laoghaire, Co Dublin, A96 K7H7, Ireland). Cells were maintained at 37 °C in 5% CO2 in a humidified incubator. All cells were sub-cultured 3 times/week by trypsinisation using TrypLE Express (1×).
Cells were seeded at a density of 2.5 × 10^4 cells/well (MCF-7, MDA-MB-231, MCF-10A cells) and 1 × 10^4 cells/well (HL-60) in 96-well plates (200 μL per well). After 24 h, cells were then treated with either medium alone, vehicle control (1% ethanol (v/v)) or with serial dilutions of CA-4 (4a), phenstatin (7a) or selected compounds (0.001–100 μM) in triplicate. Cell proliferation for MCF-7, MDA-MB-231, and MCF-10A cells was analysed using the alamarBlue assay (Invitrogen Corp.) according to the manufacturer’s instructions. After 67–69 h, alamarBlue (10% (v/v)) was added to each well, and plates were incubated for 3–5 h at 37 °C in the dark. Fluorescence was read using a 96-well fluorimeter with excitation at 530 nm and emission at 590 nm. Results were expressed as percentage viability relative to vehicle control (100%).

HL-60 leukaemia cells = system: HL-60 leukaemia cells; parameters: method as in PMID 19647439; settings: read-out: IC50 of phenstatin in HL-60; cited from earlier work
MDA-MB-231 cells = assay: Annexin V/PI apoptotic assay; type: cell-based, human; settings: for total apoptotic cells: 48 h
Procedure: (§1) Apoptotic cell death was detected by flow cytometry using Annexin V and propidium iodide (PI). MCF-7 and MDA-MB-231 cells were seeded in 6-well plates at a density of 1 × 10^5 cells/mL (3 mL) and treated with either vehicle (0.1% (v/v) EtOH), Phenstatin (7a), or 21l at different concentrations for the selected time. Then, cells were harvested and prepared for flow cytometric analysis. […] Then, cells were washed once in binding buffer and then re-suspended in PI-containing binding buffer (1:1000). […] Four populations are produced during the assay: Annexin V and PI negative (Q4, healthy cells), Annexin V positive and PI negative (Q3, early apoptosis), Annexin V and PI positive (Q2, late apoptosis), and Annexin V negative and PI positive (Q1, necrosis).

MCF-7 cells [3] = assay: Annexin V/PI apoptotic assay; type: cell-based, human; settings: for Annexin V-stained positive cells (total apoptotic cells): 48 h
Procedure: as §1

[4] = system: MCF-7 human breast cancer cells; settings: MCF-7 section; read-out: IC50 of phenstatin positive control; cited from earlier work
[5] = system: purified bovine brain tubulin; assay: tubulin polymerisation assay; type: biochemical; settings: 10 μM
Procedure: The assembly of purified bovine tubulin was monitored using a kit, BK006, purchased from Cytoskeleton Inc. (Denver, CO, USA). […] Light is scattered proportionally to the concentration of polymerised microtubules in the assay. Therefore, tubulin assembly was monitored turbidimetrically at 340 nm in a Spectramax 340 PC spectrophotometer (Molecular Devices, Sunnyvale, CA, USA). The absorbance was measured at 30 s intervals for 60 min.

[6] = system: MDA-MB-231 human breast cancer cells; parameters: method as in PMID 25721862; settings: read-out: reported IC50 of phenstatin in MDA-MB-231 cells; cited from earlier work
[7] = system: tubulin (microtubule network) in MCF-7 cells; assay: immunofluorescence confocal microscopy of microtubule network; type: cell-based, human; settings: 1 μM, 16 h
Procedure: Confocal microscopy was used to study the effects of drug treatment on MCF-7 cytoskeleton. For immunofluorescence, MCF-7 cells were seeded at 1 × 10^5 cells/mL on eight chamber glass slides (BD Biosciences). […] Following treatment, cells were gently washed in PBS, fixed for 20 min with 4% paraformaldehyde in PBS, and permeabilised in 0.5% Triton X-100. Following washes in PBS containing 0.1% Tween (PBST), cells were blocked in 5% bovine serum albumin diluted in PBST. […] Following washes in PBST, the cells were mounted in Ultra Cruz Mounting Media (Santa Cruz Biotechnology, Santa Cruz, CA) containing 4,6-diamino-2-phenolindol dihydrochloride (DAPI). Images were captured by Leica SP8 confocal microscopy with Leica application suite X software. All images in each experiment were collected on the same day using identical parameters. Experiments were performed on three independent occasions.

[8] = Homo sapiens, MDA-MB-231, 48 h, read-out: Viable
[9] = Homo sapiens, MCF7, 48 h, read-out: Viable

COc1ccc(C(=O)c2cc(OC)c(OC)c(OC)c2)cc1O [phenstatin, (3-Hydroxy-4-Methoxyphenyl)(3,4,5-Trimethoxyphenyl)Methanone, reference compound]
cells in the G2/M phase (MCF-7 cells [1]; 24 h): 65% | cells in the G2/M phase (MCF-7 cells [1]; 48 h): 49% | cells in the G2/M phase (MCF-7 cells [1]; 72 h): 51% | cells undergoing apoptosis (sub-G1) (MCF-7 cells [1]; 72 h): 18% | viability at 1 µM [2]: 30% | IC50 (HL-60 leukaemia cells): 31 nM | viability at 0.1 µM (MDA-MB-231 cells; [8]): 80.4% | viability at 0.5 µM (MDA-MB-231 cells; [8]): 80.6% | total apoptotic cells (MDA-MB-231 cells; MDA-MB-231, 0.1 μM): 16.6% | total apoptotic cells (MDA-MB-231 cells; MDA-MB-231, 0.5 μM): 17.9% | viability at 0.1 µM (MCF-7 cells [3]; [9]): 58.4% | viability at 0.5 µM (MCF-7 cells [3]; [9]): 50.7% | Annexin V-stained positive cells (total apoptotic cells) (MCF-7 cells [3]; MCF-7, 0.1 μM): 36.1% | Annexin V-stained positive cells (total apoptotic cells) (MCF-7 cells [3]; MCF-7, 0.5 μM): 46% | IC50 [4]: 1.61 ± 2.7 nM | effect on tubulin polymerisation and assembly [5]: significant inhibition of tubulin polymerisation | IC50 [6]: 1500 nM | effect on microtubule network of MCF-7 cells [7]: extensive depolymerisation of tubulin
